Assay: gradient 5% acetonitrile 3 min, to 50% in 2 min, to 85% in 15 min, held 3 min, 100 µL/min
Conditions: column: Zorbax Extend-C18 2.1 x 50 mm; eluents: water / acetonitrile, 0.1% formic acid
How it was run: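 The mobile phases were water and acetonitrile, each with 0.1% formic acid, pumped at 100 μL/min through a Zorbax Extend-C18 column (2.1 × 50 mm, 1.8 μm). Pure standards were injected as mixtures of ~100 molecules and detected by a quadrupole time-of-flight mass spectrometer in positive and negative ionization mode. Retention time came from computationally picked adduct peaks, each inspected by hand.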

SMILES	RP-LC retention time [s]
CCCN1CCN(C(=O)Cn2nc(C)c3sc(CC)nc3c2=O)CC1	577
CC1=C(c2ccc(F)cc2)S(=O)(=O)N=C1N1CCCN(C(=O)c2ccc(C)s2)CC1	857
CCn1nccc1C(=O)N1c2ccccc2CC1c1nnc(C2CC2)o1 (stereo unspecified)	755
CN1c2cc(C(=O)NCc3ccc(F)cc3Cl)ccc2C(=O)N2CCCCC21 (stereo unspecified)	833
O=C(Cc1ccc(F)cc1)N(CC1CCOC1)C1CC1 (stereo unspecified)	794
CC1CCN(c2cc(-n3cnc(C(=O)N4CCC5(CC4)OCCO5)c3)ncn2)CC1	834
CCNc1cc(N2CCCC(CCC(=O)N3CCCC(C(=O)OCC)C3)C2)ncn1 (stereo unspecified)	664
O=C(NCc1cccc(Br)c1)c1ccc2c(c1)ncn2CCN1CCCC1	599
O=S(=O)(c1ccccc1)N1CCC(N2C[C@H](Oc3ccccc3)[C@@H]2c2ccncc2)CC1	733
Cn1c(=O)c(N2CCN(C(=O)c3cc(F)ccc3Cl)CC2)nc2ccncc21	570
Cc1ccc2oc(=O)n(Cc3noc(C(=O)NCCC4=CCCCC4)n3)c2c1	1090
COc1ccccc1NC(=O)N1CCOc2ccc(Cl)cc21	1050
O=c1n(Cc2cccc(Br)c2)nc2c(S(=O)(=O)N3CCCCC3)cccn12	941
CCCS(=O)(=O)N1CCC2(CC1)c1[nH]c3ccccc3c1CCN2C	659
COc1ccccc1NC(=O)C1CC(=O)N(c2ccc3oc(C)nc3c2)C1 (stereo unspecified)	726
O=C(NCc1ccccc1)N1CCN(Cc2nc3cc(-c4ccccc4)ccc3o2)CC1	825
COc1ccc(N2CC(NC(=O)C(=O)c3c(C)[nH]c4ccccc34)CC2=O)cc1 (stereo unspecified)	707
CCOc1ccccc1NC(=O)N1CCC2(C1)C(=O)N(C)c1ccc(OC)cc12 (stereo unspecified)	882
CCC(=O)Nc1nc2cc(NC(=O)C3CCN(S(=O)(=O)N4CCOCC4)CC3)ccc2s1	719
CCN1CCN(C(=O)c2cc3n(n2)CC(C)(C(=O)NC2CCCCCC2)N(C)C3=O)CC1 (stereo unspecified)	611
Cc1ccc(C)c(NC(=O)C2CCCN(S(=O)(=O)c3cc(-c4noc(C)n4)cs3)C2)c1 (stereo unspecified)	1060
CCS(=O)(=O)N1CCC(Cc2ccc(CN3CCOCC3)cc2)CC1	622
CCOc1ccc(C2Cn3nnc(-c4nc(-c5ccc(F)c(F)c5)no4)c3CO2)cc1 (stereo unspecified)	1250

SMILES	RP-LC retention time [s]
COCCOCC(=O)N1[C@@H]2CC[C@H]1CC(NC(=O)c1cnc(C)cn1)C2 (stereo partly specified)	579
Cc1sc2ncnc(SCC(=O)Nc3ccc(S(N)(=O)=O)cc3)c2c1C	730
Cc1ccc(N2CCN(C(=O)c3cn4nc(Cl)ccc4n3)CC2)cc1	823
O=C(CN1C(=O)COc2ccc(C(=O)N3CCCC3)cc21)N1CCN(c2ccccn2)CC1	583
COC(=O)c1ncn2c1C(=O)N(Cc1ccc(Cl)cc1)C(C)(C(=O)NC1CCCC1)C2 (stereo unspecified)	758
CCOC(=O)c1[nH]c(C)c(C(=O)N2CCC(CC(=O)NC3CC3)CC2)c1C	628
CCCc1nc(NCc2cccnc2)ncc1C(=O)O	569
COc1ccc(Cl)cc1NC(=O)C1CCCN(S(=O)(=O)c2cc(-c3noc(C)n3)cs2)C1 (stereo unspecified)	1080
COc1cccc(CNC(=O)Cn2c(=O)c3cc(C)nn3c3ncccc32)c1	698
CCN1CCN(c2nc3c(c(Nc4ccccc4)n2)C(=O)CCC3)CC1	1040
Cc1cccc(-c2noc(C3CCCN3C(=O)Nc3ccccc3)n2)c1 (stereo unspecified)	980
COc1ccc(CC(=O)N2CCCC2c2nc(-c3ccccc3OC)no2)cc1 (stereo unspecified)	853
COCCN1C(=O)Cc2ccccc2C1C(=O)NCc1ccccc1Br (stereo unspecified)	775
O=C(NCCC1CCN(C(=O)Nc2ccc(F)cc2F)CC1)C1CC1	691
COc1ccccc1NC(=O)N1c2ccccc2NC2=C(C(=O)CCC2)C1c1ccco1 (stereo unspecified)	830
Cc1ccc2nc(Nc3ncc4c(n3)CC(C)CC4=O)nc(C)c2c1 (stereo unspecified)	651
Cc1ccc2c(c1)N(Cc1ccccc1F)N=C(C(=O)N1CCCC1)S2(=O)=O	885
Cc1nc2nc(-c3ccccc3)nn2c(C)c1CC(=O)N1CCCCC1	735
COc1ccc(N2CCN(c3cc(SCC(=O)Nc4ccc(OC)c(OC)c4)ncn3)CC2)cc1	791
Cc1cc(C(=O)NC2CCCCCC2)n[nH]1	724
CCOc1ccccc1CNC(=O)Cc1csc2nc(-c3ccccc3)cn12	830
CCn1c(=O)c(C)nc2cc(-c3noc(-c4ccc(N(C)C)cc4)n3)ccc21	1140
CCc1noc(-c2cccnc2N2CCCN(Cc3ccccc3Cl)CC2)n1	679

Source: the METLIN SMRT retention time set (Domingo-Almenara et al. 2019)
